In ChEMBL document CHEMBL1201862, “PubChem BioAssay data set” (2004):
Active and inactive are the calls of the source.

Assays:
Cytochrome P450 2D6 = Cytochrome P450 2D6 (Homo sapiens, UniProt P10635);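 also: CYP2D6 member of a cytochrome P450 panel assay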
Cytochrome P450 2C9 = Cytochrome P450 2C9 (Homo sapiens, UniProt P11712)
Cytochrome P450 3A4 = Cytochrome P450 3A4 (Homo sapiens, UniProt P08684);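 also: CYP3A4 tested as one member of a cytochrome P450 panel screen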
Fatty acid synthase [1] = target: T1, Fatty acid synthase (Homo sapiens, UniProt P49327); assay: inhibition of human FAS-TE enzyme activity – biochemical, endpoint fluorescence intensity, uHTS hits, dose response (AID 624327); type: functional;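 also: fluorescence from hydrolysis of an O-methyl fluorescein acyl ester substrate by the enzyme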
Fatty acid synthase [2] = target: T1, Fatty acid synthase; assay: inhibition of human FAS-TE enzyme activity – biochemical, kinetic fluorescence intensity, dose response (AID 624326); type: functional;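 also: rate of fluorescence rise from hydrolysis of a fluorogenic O-methyl fluorescein ester substrate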
Cytochrome P450 2C19 = Cytochrome P450 2C19 (Homo sapiens, UniProt P33261); assay: Cytochrome panel assay with activity outcomes. Panel member name: p450-cyp2c19 Compounds with AC50 equal or less than 10 uM are considered active; type: functional; details: read-out: AC50
Large T antigen = Large T antigen (Simian virus 40, UniProt P03070); type: functional, Betapolyomavirus macacae;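 also: Confirmatory-stage PubChem screen for compounds that inhibit SV40 T antigen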
[3] = target: T2, RNA-binding protein pos-1 (Caenorhabditis elegans, UniProt G5EF15); assay: disruptors of C. elegans POS-1 RNA interaction – biochemical, fluorescence polarization, dose response (AID 1964);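 also: purified POS-1 fused to maltose binding protein made in E. coli; potency of compounds blocking POS-1 binding to fluorescent RNA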
T2 sequence (G5EF15 whole entry): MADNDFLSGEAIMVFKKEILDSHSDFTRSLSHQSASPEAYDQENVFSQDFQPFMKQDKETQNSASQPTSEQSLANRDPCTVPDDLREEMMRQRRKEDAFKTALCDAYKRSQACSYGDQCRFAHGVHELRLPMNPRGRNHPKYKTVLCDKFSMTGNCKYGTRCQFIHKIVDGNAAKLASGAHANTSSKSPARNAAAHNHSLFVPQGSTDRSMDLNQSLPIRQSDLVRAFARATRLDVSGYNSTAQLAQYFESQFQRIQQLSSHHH

[4] = target: T3, Zinc finger protein mex-5 (Caenorhabditis elegans, UniProt Q9XUB2); assay: potency of MEX-5 RNA-binding blockers – biochemical, C. elegans, fluorescence polarization, dose response (AID 1960)
T3 sequence (Q9XUB2 whole entry): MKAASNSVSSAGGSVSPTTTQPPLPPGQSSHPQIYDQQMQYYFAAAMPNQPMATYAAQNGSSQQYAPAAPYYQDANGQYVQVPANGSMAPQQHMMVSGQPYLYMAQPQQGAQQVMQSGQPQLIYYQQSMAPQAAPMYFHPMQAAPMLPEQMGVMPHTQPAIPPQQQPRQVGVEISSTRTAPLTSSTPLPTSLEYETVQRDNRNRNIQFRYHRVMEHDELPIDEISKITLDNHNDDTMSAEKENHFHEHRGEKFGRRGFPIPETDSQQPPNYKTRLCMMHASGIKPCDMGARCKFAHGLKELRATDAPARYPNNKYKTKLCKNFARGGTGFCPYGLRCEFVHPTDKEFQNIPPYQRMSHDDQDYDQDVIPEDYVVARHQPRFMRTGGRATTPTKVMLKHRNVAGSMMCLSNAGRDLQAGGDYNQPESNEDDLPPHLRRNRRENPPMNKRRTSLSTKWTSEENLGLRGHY

[5] = target: T4, Corticotropin-releasing factor receptor 2/Corticotropin-releasing factor-binding protein (Homo sapiens, UniProt P24387+Q13324); assay: activators of CRF receptor 2 with binding protein – uHTS hits, confirmation (AID 602473); type: functional; details: read-out: EC50_Mean
T4 sequence (Q13324 whole entry): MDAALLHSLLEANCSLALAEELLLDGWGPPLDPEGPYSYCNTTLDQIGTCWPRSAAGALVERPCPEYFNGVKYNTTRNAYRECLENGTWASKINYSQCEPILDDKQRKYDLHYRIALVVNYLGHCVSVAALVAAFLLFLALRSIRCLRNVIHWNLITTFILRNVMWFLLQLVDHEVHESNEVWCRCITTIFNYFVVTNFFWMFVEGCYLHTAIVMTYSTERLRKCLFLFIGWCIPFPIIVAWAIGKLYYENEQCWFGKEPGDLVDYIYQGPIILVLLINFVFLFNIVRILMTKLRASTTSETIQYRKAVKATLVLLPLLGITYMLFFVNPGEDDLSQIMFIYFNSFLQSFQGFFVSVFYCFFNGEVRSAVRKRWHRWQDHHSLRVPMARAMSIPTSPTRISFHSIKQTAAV
T4 sequence (P24387 whole entry): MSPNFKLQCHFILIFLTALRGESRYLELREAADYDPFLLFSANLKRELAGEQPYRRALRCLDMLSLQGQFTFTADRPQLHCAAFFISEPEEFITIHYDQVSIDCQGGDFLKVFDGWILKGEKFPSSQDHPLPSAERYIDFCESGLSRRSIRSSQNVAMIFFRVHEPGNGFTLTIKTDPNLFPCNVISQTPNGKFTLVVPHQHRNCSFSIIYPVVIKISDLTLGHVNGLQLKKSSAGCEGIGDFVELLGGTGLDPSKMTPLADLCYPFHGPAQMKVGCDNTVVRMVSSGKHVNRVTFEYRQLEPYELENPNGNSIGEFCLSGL

[6] = reduction of Shn3 3'UTR-driven luciferase in osteoblasts – cell-based, Clone20 osteoblasts, firefly luciferase, cherry-picked, dose response (AID 624132); type: functional;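 also: firefly luciferase luminescence from reporter carrying the Shn3 3'UTR in osteoblasts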
[7] = non-specific 3'UTR reporter inhibition in Clone20-Shn3RL – cell-based, Renilla luciferase, cherry-picked, counter-screen for Shn3 inhibitor project, dose response (AID 624133); type: functional
[8] = target: T5, Rac GTPase-activating protein 1 (Homo sapiens, UniProt Q9H0H5); assay: blockers of MgcRacGAP-driven Rac1 GTP hydrolysis – biochemical, ADP Hunter fluorescence, primary and confirmatory, confirmation (AID 624330); type: functional
T5 sequence (Q9H0H5 whole entry): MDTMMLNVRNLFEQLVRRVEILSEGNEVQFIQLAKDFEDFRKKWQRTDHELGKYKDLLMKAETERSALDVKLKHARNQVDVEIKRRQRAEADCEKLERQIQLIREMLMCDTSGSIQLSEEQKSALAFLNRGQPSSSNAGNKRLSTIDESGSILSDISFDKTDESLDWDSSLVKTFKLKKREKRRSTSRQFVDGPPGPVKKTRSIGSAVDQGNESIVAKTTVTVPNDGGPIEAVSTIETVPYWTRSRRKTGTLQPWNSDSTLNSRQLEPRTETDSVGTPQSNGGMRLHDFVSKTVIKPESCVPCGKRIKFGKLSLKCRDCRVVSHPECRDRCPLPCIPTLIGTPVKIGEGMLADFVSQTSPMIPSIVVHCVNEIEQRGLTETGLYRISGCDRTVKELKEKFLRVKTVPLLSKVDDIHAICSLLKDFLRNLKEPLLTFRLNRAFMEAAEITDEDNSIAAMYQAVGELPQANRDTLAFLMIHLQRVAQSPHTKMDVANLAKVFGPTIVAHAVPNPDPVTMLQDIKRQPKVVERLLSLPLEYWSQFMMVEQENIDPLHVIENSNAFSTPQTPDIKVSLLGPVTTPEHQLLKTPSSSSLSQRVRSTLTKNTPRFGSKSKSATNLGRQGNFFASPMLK

Sequence of Cytochrome P450 2C19 (P33261 whole entry): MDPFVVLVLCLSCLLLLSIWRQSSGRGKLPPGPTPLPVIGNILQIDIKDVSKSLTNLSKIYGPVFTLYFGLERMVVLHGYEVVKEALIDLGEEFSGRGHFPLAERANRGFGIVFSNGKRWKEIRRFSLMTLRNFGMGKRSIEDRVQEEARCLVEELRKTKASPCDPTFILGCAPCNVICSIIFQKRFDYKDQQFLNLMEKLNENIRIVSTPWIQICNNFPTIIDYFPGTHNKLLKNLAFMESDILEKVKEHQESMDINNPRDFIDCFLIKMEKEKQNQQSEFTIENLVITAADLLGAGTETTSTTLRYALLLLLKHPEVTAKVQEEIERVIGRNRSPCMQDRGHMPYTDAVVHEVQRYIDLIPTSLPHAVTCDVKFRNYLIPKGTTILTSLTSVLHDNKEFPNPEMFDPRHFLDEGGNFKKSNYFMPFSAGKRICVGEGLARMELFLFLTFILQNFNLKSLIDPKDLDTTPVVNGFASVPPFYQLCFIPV
T1 sequence (P49327 whole entry): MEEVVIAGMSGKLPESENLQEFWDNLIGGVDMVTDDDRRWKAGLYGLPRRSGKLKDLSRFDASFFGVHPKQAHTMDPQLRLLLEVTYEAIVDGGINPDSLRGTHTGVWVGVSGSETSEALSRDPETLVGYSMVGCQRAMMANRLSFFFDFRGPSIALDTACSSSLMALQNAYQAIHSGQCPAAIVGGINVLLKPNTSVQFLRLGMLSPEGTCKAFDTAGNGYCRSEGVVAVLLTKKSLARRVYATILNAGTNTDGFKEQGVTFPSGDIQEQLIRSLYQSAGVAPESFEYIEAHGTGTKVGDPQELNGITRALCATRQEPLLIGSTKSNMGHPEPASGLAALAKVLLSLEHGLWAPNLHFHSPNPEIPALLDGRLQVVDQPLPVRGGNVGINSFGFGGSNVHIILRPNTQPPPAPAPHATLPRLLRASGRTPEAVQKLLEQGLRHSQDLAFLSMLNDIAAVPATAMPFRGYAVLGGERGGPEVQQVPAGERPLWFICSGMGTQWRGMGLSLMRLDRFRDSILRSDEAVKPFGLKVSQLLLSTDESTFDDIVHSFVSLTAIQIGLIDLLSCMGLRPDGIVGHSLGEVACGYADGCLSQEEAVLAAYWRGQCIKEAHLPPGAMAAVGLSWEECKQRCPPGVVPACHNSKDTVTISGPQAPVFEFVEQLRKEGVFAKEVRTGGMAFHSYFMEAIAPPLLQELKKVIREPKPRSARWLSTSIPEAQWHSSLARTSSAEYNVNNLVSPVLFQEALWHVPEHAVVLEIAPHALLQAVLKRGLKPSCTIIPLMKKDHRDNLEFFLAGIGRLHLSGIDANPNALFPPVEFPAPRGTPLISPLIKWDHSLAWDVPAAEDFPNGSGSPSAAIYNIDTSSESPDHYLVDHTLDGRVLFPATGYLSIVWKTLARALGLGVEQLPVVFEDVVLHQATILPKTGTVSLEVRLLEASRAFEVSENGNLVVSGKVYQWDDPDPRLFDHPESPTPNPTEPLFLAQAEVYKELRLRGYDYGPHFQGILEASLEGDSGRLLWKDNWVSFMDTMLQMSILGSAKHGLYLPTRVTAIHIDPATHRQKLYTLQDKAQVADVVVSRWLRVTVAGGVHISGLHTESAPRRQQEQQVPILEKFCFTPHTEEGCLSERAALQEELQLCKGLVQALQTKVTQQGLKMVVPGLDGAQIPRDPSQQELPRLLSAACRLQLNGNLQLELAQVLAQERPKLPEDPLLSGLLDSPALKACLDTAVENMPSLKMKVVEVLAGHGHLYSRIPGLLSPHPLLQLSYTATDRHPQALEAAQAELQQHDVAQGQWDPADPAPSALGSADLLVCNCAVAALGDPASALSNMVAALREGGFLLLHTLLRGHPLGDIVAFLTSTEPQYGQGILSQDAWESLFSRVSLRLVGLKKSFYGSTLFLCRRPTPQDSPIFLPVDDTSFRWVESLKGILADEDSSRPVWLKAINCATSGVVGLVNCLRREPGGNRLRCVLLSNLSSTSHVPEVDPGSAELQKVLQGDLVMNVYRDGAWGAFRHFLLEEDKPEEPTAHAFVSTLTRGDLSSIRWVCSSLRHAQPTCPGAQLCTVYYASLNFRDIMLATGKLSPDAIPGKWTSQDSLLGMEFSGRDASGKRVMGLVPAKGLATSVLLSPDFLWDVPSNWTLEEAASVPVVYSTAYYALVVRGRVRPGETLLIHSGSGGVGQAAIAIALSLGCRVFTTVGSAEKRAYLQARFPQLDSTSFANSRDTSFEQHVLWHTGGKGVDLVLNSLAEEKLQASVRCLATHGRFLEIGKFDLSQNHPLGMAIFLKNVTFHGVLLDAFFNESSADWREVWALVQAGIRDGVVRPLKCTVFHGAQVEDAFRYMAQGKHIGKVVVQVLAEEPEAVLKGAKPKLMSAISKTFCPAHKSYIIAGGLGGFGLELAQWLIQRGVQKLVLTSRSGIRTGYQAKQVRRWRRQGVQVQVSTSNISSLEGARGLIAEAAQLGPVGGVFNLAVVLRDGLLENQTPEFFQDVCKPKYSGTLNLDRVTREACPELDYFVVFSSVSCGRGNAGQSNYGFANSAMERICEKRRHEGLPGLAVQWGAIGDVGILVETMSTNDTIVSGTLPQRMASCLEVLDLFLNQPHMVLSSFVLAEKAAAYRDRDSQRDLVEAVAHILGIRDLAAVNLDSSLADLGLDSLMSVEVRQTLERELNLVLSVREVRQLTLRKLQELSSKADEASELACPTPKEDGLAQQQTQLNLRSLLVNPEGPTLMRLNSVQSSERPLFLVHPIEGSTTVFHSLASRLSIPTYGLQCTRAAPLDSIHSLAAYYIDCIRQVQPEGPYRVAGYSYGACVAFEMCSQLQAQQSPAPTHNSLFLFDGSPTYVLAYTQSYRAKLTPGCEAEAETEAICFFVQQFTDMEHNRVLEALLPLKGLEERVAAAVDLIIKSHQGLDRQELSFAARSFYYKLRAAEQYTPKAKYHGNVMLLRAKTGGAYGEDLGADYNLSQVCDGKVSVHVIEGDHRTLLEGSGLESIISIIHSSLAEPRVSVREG
Sequence of Cytochrome P450 2D6 (P10635 whole entry): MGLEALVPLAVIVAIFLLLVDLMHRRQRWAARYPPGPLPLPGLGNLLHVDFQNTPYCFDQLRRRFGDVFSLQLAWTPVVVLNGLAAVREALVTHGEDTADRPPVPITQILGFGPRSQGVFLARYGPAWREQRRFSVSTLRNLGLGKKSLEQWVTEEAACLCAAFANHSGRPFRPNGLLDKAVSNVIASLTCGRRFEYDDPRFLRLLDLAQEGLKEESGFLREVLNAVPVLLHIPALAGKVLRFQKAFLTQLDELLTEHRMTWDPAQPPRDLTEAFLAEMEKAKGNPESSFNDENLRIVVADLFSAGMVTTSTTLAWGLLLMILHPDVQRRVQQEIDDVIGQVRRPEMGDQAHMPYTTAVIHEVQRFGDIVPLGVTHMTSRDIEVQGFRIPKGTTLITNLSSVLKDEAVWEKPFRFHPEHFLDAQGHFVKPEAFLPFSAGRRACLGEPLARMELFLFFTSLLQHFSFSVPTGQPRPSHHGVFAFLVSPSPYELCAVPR
Sequence of Large T antigen (P03070 whole entry, the tested form may be a part): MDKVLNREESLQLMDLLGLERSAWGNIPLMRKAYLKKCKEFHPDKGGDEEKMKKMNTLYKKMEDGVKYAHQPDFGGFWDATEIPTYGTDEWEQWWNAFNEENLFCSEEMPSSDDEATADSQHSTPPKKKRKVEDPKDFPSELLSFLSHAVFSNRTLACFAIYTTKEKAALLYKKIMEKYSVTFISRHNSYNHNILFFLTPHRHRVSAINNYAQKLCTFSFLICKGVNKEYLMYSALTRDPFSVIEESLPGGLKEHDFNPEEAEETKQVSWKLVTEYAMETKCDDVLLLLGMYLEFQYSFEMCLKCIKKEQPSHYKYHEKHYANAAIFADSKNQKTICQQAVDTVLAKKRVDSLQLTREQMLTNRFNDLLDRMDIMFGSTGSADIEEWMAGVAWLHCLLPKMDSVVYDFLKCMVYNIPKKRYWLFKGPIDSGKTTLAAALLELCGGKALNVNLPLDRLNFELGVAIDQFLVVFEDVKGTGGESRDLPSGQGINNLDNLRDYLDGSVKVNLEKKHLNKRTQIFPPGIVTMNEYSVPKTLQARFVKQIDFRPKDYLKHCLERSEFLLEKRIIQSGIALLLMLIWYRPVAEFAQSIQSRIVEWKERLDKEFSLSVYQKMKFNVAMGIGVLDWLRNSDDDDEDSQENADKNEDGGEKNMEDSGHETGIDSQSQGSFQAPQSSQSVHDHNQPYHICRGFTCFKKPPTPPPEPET
Sequence of Cytochrome P450 3A4 (P08684 whole entry): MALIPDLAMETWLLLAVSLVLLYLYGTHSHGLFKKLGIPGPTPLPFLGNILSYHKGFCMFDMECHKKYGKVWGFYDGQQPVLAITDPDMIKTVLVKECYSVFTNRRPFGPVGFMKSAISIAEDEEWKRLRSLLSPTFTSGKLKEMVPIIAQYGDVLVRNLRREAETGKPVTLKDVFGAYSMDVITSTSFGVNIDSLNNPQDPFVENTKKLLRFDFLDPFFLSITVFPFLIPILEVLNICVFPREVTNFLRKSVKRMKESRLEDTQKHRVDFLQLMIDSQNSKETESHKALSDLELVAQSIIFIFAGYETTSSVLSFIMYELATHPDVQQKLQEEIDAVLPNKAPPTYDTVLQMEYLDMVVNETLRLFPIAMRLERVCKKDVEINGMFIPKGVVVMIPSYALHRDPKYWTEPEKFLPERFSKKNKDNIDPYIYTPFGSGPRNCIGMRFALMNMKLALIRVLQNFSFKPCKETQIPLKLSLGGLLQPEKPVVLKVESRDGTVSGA

C=CCN(CC=C)C(=O)C(=O)c1cc(C)n(-c2ccc([N+](=O)[O-])cc2)c1C
AC50 (Cytochrome P450 2D6): 3.98 µM (inconclusive)
AC50 (Cytochrome P450 2C9): 15.8 µM (inconclusive)

CCOC(=O)CC(=O)CSc1n[nH]c2c3ccccc3nc-2n1
AC50 (Cytochrome P450 2D6): 3.55 µM (inconclusive)
AC50 (Cytochrome P450 3A4): 2.51 µM (inconclusive)

CCN1C(=O)[C@H]2[C@@H](c3ccc(C)cc3)N3C(=O)N(c4cccc(Cl)c4)C(=O)[C@@]3(Cc3ccc(Cl)cc3)[C@H]2C1=O
IC50 (Fatty acid synthase [1]): 12 µM (active)
IC50 (Fatty acid synthase [2]): 16.1 µM (active)

CNc1ncnc2ccc(-c3cccc(NS(C)(=O)=O)c3)cc12
AC50 (Cytochrome P450 2C19): 20 µM (inconclusive)
AC50 (Cytochrome P450 2D6): 39.8 µM (inconclusive)

CCCCC(=O)NCCc1c(Cc2ccccc2)[nH]c2ccccc12
AC50 (Cytochrome P450 2C19): 20 µM (inconclusive)
AC50 (Cytochrome P450 2D6): 39.8 µM (inconclusive)

O=C1CC(=O)N(Cc2ccco2)C(=S)N1
IC50 (Large T antigen): 55.5 µM (active)

Cc1c(N2CCCC2)cc2c(c1NC(=O)c1ccccc1Cl)C(C)(C)CC2(C)C
AC50 (Cytochrome P450 2D6): 3.16 µM (inconclusive)
AC50 (Cytochrome P450 3A4): 0.631 µM (inconclusive)

CC1CCCN(c2ccc(N)cc2C(N)=O)C1 (stereo not drawn)
IC50 (Large T antigen): 44.6 µM (active)

COc1cc(/C=C2/C(C)=C(C#N)c3nc(N)c(C#N)c(C)c32)ccc1OCC(=O)O
IC50 (Large T antigen): 89.5 µM (active)

C#CCOC(=O)NC(/C=C/CCCC)c1ccccc1 (stereo not drawn)
AC50 (Cytochrome P450 2C19): 25.1 µM (inconclusive)
AC50 (Cytochrome P450 2D6): 20 µM (inconclusive)

COc1cccc(C(=O)NC2CC3CCCC(C2)N3CC(=O)Nc2ccc(N(C)C)cc2)c1 (stereo not drawn)
IC50 (Large T antigen): 6.24 µM (active)

O=C(O)C(=O)/C(=C\c1cccc2ccccc12)c1ccc2ccccc2n1
EC50 [3]: 164 µM (active)
EC50 [4]: 34.2 µM (active)
EC50 [5]: 7.6 µM (active)

CCn1c(SCC(=O)Nc2ncc(C(F)(F)F)cc2Cl)nnc1-c1cccc(C)c1
IC50 (Fatty acid synthase [1]): 3.66 µM (active)
IC50 (Fatty acid synthase [2]): 3.94 µM (active)

CCCSc1nnc2nc3c(nn12)c1ccccc1n3C
EC50 [3]: > 300 µM (not active)
EC50 [4]: 76.6 µM (active)

COc1cc(OC)c(C2CC(=O)N3CN(c4ccccc4C)CSC3=C2C#N)cc1OC (stereo not drawn)
IC50 (Large T antigen): 54.8 µM (active)

O=C(Nc1ccc(O)cc1)c1ccc2c(c1)C(=O)N(N1C(=O)c3ccccc3C1=O)C2=O
IC50 (Large T antigen): 21.4 µM (active)

COc1ccc(NC2CCCN(C(=O)CCCn3cncn3)C2)cc1 (stereo not drawn)
IC50 (Large T antigen): 52.6 µM (active)

O=C(NCc1ccc2c(c1)OCO2)c1cc([N+](=O)[O-])ccc1N1CCCCC1
IC50 (Fatty acid synthase [1]): 10.5 µM (active)
IC50 (Fatty acid synthase [2]): 5.03 µM (active)

CN1C(=O)/C(=C\c2ccc(N3CCCCC3)o2)C(=O)NC1=S
EC50 [3]: > 300 µM (not active)
EC50 [4]: > 300 µM (not active)

FC(F)(F)c1nc(N2CCCC2)ncc1-c1nnnn1-c1ccccc1
AC50 (Cytochrome P450 2D6): 12.6 µM (inconclusive)

CCOc1ccc(NC(=O)CN(c2ccc([N+](=O)[O-])cc2)S(=O)(=O)c2ccccc2)cc1
IC50 (Fatty acid synthase [1]): 10.5 µM (active)
IC50 (Fatty acid synthase [2]): 7.65 µM (active)

CC(C)(C)NS(=O)(=O)c1ccc(NC(=O)NC2CCCCC2)cc1
AC50 (Cytochrome P450 2C19): 25.1 µM (inconclusive)
AC50 (Cytochrome P450 2D6): 17.8 µM (inconclusive)

COc1ccc([N+](=O)[O-])cc1NC(=O)c1ccc(N(Cc2ccccc2C)S(C)(=O)=O)cc1
IC50 (Fatty acid synthase [1]): 9.88 µM (active)
IC50 (Fatty acid synthase [2]): 6.91 µM (active)

Cc1cc2c3c(c1C)C1(C(=O)N3C(C)(C)CC2C)C(C#N)=C(N)OC2=C1C(=O)CC(C)(C)C2 (stereo not drawn)
EC50 [3]: > 300 µM (not active)
EC50 [4]: > 300 µM (not active)

CCOC(=O)C1CCN(C(=O)c2ccc(OCC(=O)Nc3cccc(C(F)(F)F)c3)c(OC)c2)CC1
AC50 [6]: 1.75 µM (active)
AC50 [7]: 4.69 µM (active)

O=C(Cc1ccc(S(=O)(=O)N2CCOCC2)s1)N1CCN(S(=O)(=O)c2ccccc2[N+](=O)[O-])CC1
IC50 (Fatty acid synthase [1]): 0.241 µM (active)
IC50 (Fatty acid synthase [2]): 3.36 µM (active)

CCN(CC)C(=O)C1=C(C)N(Cc2ccc(F)cc2)C(=O)C(CC(=O)NC(c2ccccc2)c2ccccc2)C1 (stereo not drawn)
IC50 (Fatty acid synthase [1]): 9.6 µM (active)
IC50 (Fatty acid synthase [2]): 7.98 µM (active)

Fc1c(F)c(F)c(N/N=C/c2c[nH]c3ccccc23)c(F)c1F
IC50 (Fatty acid synthase [1]): 11.5 µM (active)
IC50 (Fatty acid synthase [2]): 12.4 µM (active)

Sc1nnc(COc2ccccc2)n1/N=C/C=C/c1ccco1
IC50 (Large T antigen): > 100 µM (active)

CCOc1cc(/C=N/Nc2ncnc(Cl)c2N)ccc1O
IC50 (Large T antigen): 6.12 µM (active)
IC50 [8]: 25.2 µM (active)

COc1cc(C=C2C(=O)NC(=O)NC2=O)ccc1O
IC50 (Large T antigen): 28 µM (active)
